Results published in ChEMBL document CHEMBL5727406, “Positive allosteric modulators of the GLP-1 receptor” (2019).

Target: Glucagon-like peptide 1 receptor (Homo sapiens, UniProt P43220)
Test: GLP-1 Assay with EX-4 Synthetic Agonist: To assess the effects of test compounds on GLP-1 or glucagon potency and efficacy, a high-throughput calcium mobilization assay was used essentially as previously described (Morris L C, Days E L, Turney M, Mi D, Lindsley C W, Weaver C D, Niswender K D, A Duplexed High-Throughput Screen to Identify Allosteric Modulators of the Glucagon-Like Peptide 1 and Glucagon Receptors. J. Biomol. Screen. 2014 Feb. 13, 19(6):847-858). Briefly, human GLP-1R or Glucagon Receptor 9-3-H cells over-expressing a promiscuous G-protein (Millipore, Billerica, Mass.) were plated at 15,000 cells/well in black-walled 384-well plates (Greiner Bio-one, Monroe, N.C.) in Dulbecco's Modified Eagles Medium (DMEM) with 10% FCS, 4.0 mM L-glutamine, 1× non-essential amino acids (NEAAs), and 10.0 mM HEPES without antibiotics. After overnight attachment, cells were washed twice with assay buffer (HBSS supplemented with 20 mM HEPES and 1.0 mM probenecid) using an EL×405CW cell washer (Bio-Tek, Winooski, Vt.) and then loaded with the calcium sensitive dye fluo-4 AM (Invitrogen, Grand Island, N.Y.) at a final concentration of 2.0 μM in assay buffer. After a 45-minute incubation at room temperature, the dye was removed by washing, leaving 20 μL of assay buffer. […]

Glucagon-like peptide 1 receptor, sequence (P43220 whole entry): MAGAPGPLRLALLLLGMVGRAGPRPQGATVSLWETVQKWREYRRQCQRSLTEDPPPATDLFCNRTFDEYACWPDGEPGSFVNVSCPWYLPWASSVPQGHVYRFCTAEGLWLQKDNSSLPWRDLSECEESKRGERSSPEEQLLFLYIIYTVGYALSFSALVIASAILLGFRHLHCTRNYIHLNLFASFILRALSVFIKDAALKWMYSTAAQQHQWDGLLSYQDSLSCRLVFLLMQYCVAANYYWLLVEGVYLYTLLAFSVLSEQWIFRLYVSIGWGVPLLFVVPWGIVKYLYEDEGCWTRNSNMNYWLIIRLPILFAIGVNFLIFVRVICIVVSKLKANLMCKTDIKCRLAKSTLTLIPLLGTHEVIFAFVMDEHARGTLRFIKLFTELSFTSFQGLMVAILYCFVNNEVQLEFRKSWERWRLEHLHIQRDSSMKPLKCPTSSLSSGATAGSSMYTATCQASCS

Cc1c2ccccc2n2c(C(=O)NC[C@H]3CCCN3C(C)C)cn(C3CCCC3)c(=O)c12
EC50: > 30 µM
